The values that follow come from patent US20260055117A1, “SUBSTITUTED PYRIDONE GPR84 ANTAGONISTS AND USES THEREOF” (Liminal BioSciences Limited, priority 2022, published 2026).

For experiment [1], the target named is T1, human GPR84 receptor (Homo sapiens, UniProt Q9NQS5).
T1 construct: host or cells: HEK293, transiently transfected
The experiment is described as follows: Gαi biosensor BRET assay (GPR84 antagonism vs agonist ZQ-16). In kind it is cell-based. Particulars: HEK293 cells, 200 nmol/L agonist ZQ-16; for inhibition at 10 µM: tested at 10 μM (concentration code D); for IC50: Gαi biosensor BRET assay; for inhibition at 2 µM: tested at 2 μM (concentration code A). The essentials: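 HEK293 cells transiently expressing GPR84, Gαi2-Rluc8, GFP10-Gγ2 and Gβ1 were pre-incubated with compounds 5 min at 37 °C in Tyrode's buffer pH 7.5, then stimulated with 200 nmol/L ZQ-16 for 5 min at room temperature. BRET2 (acceptor/donor ratio) read after 5 μmol/L coelenterazine 400A, background- and vehicle-corrected.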

For experiment [2], the system named is dextran sodium sulfate-induced chronic inflammatory bowel disease. Particulars: mouse; once-daily doses of 3 and 10 mg/kg; cited from earlier work.

The structures appear in SMILES notation. Where only a bound is given, the exact number is not on record here.

T1 sequence (Q9NQS5 whole entry): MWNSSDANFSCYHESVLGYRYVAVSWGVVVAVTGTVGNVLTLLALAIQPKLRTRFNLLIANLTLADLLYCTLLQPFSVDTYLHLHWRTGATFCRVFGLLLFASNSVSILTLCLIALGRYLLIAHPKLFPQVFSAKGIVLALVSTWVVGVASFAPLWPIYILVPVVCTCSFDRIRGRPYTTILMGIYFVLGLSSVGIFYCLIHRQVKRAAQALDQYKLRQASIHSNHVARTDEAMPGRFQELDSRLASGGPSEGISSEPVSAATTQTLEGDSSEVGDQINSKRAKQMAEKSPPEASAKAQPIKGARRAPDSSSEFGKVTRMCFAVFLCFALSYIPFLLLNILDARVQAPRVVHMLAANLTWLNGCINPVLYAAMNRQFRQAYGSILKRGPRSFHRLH

As to `Cc1cc(OCc2ncn[nH]2)cc(=O)n1[C@H](C)c1ccc(C#CC2CC2)cc1` [Compound I-328], the inhibition at 10 µM in experiment [1] is greater than 75%.

In experiment [1], `Cc1cc(OCc2ncnn2C)cc(=O)n1[C@H](C)c1ccc(C#CC2CC2)cc1` [Compound I-329] gave a concentration for half-maximal inhibition (IC50) of no more than 300 nM and an inhibition at 2 µM greater than 75%.

On to `Cc1cc(OCc2nncn2C)cc(=O)n1[C@H](C)c1ccc(C#CC2CC2)cc1` [Compound I-330], for which, in experiment [1], the half-maximal inhibitory concentration (IC50) is no more than 300 nM and the inhibition at 2 µM was greater than 75%.

`Cc1cc(OCc2nnnn2C2CC2)cc(=O)n1[C@H](C)c1ccc(C#CC2CC2)cc1` [Compound I-331]: the inhibition at 2 µM in experiment [1] is greater than 75%.

Take `Cc1cc(OCC(=O)N2CC[C@H](S(=O)(=O)N(C)C)C2)cc(=O)n1[C@H](C)c1ccc(C#CC2CC2)cc1` [Compound I-333]: in experiment [1], the IC50 lay within 1000 to 3000 nM and the inhibition at 10 µM was greater than 75%.

In experiment [1], `Cc1cc(OCC(=O)N2CC[C@@H](S(=O)(=O)N(C)C)C2)cc(=O)n1[C@H](C)c1ccc(C#CC2CC2)cc1` [Compound I-334] came in with an IC50 of 300 to 1000 nM and an inhibition at 2 µM greater than 75%.

Regarding `Cc1cc(OCC(=O)N2CC[C@H](NS(C)(=O)=O)C2)cc(=O)n1[C@H](C)c1ccc(C#CC2CC2)cc1` [Compound I-335], the inhibition at 2 µM in experiment [1] was greater than 75%.

Molecule `Cc1cc(OCC(=O)N2CC[C@@H](NS(C)(=O)=O)C2)cc(=O)n1[C@H](C)c1ccc(C#CC2CC2)cc1` [Compound I-336] returned an inhibition at 2 µM in experiment [1] greater than 75%.

`Cc1cc(OCC(=O)N2CC[C@H](N(C)S(C)(=O)=O)C2)cc(=O)n1[C@H](C)c1ccc(C#CC2CC2)cc1` [Compound I-337]: the inhibition at 10 µM in experiment [1] was greater than 75%.

With `Cc1cc(OCC(=O)N2CC[C@@H](N(C)S(C)(=O)=O)C2)cc(=O)n1[C@H](C)c1ccc(C#CC2CC2)cc1` [Compound I-338], in experiment [1], the inhibition at 10 µM was greater than 75%.

For the molecule `Cc1cc(/C=C2\SC(=O)NC2=O)cc(=O)n1[C@H](C)c1ccc(C#CC2CC2)cc1` [Compound I-339], the inhibition at 10 µM in experiment [1] is greater than 75%.

For `Cc1cc(COCC(=O)N(C)C)cc(=O)n1[C@H](C)c1ccc(C#CC2CC2)cc1` [Compound I-340], the inhibition at 10 µM in experiment [1] lay in the range of 50 to 75%.

With `Cc1cc(OCC(=O)N2CCCCC2)cc(=O)n1[C@H](C)c1ccc(C#CC2CC2)cc1` [Compound I-341], in experiment [1], the IC50 is no more than 300 nM and the inhibition at 2 µM is greater than 75%.

In experiment [1], `Cc1cc(OCC(=O)N2CC(C)(C)C2)cc(=O)n1[C@H](C)c1ccc(C#CC2CC2)cc1` [Compound I-342] registered a half-inhibitory concentration (IC50) of 300 to 1000 nM and an inhibition at 10 µM greater than 75%.

As for `Cc1cc(OCC(=O)N2CC(C)(C#N)C2)cc(=O)n1[C@H](C)c1ccc(C#CC2CC2)cc1` [Compound I-343], in experiment [1], the IC50 lay in the range of 1000 to 3000 nM and the inhibition at 2 µM is greater than 75%.

With `Cc1cc(OCC(=O)N2CC3(CC3)C2)cc(=O)n1[C@H](C)c1ccc(C#CC2CC2)cc1` [Compound I-344], in experiment [1], the IC50 was no more than 300 nM and the inhibition at 2 µM was greater than 75%.

With `Cc1cc(OCC(=O)N2CC(C)(O)C2)cc(=O)n1[C@H](C)c1ccc(C#CC2CC2)cc1` [Compound I-345], in experiment [1], the IC50 is no more than 300 nM and the inhibition at 10 µM is greater than 75%.

Molecule `Cc1cc(OCC(=O)NCCN2CCCC2)cc(=O)n1[C@H](C)c1ccc(C#CC2CC2)cc1` [Compound I-346] showed an inhibition at 10 µM in experiment [1] of 25 to 50%.

In experiment [1], `Cc1cc(OCC(=O)N(C(C)C)C(C)C)cc(=O)n1[C@H](C)c1ccc(C#CC2CC2)cc1` [Compound I-347] returned a half-maximal inhibitory concentration (IC50) of 300 to 1000 nM and an inhibition at 10 µM greater than 75%.

In experiment [1], `Cc1cc(OCC(=O)N2CC(C)OC(C)C2)cc(=O)n1[C@H](C)c1ccc(C#CC2CC2)cc1` (stereo partly shown) [Compound I-348] registered an inhibition at 10 µM greater than 75%.

In experiment [1], `COCCNC(=O)COc1cc(C)n([C@H](C)c2ccc(C#CC3CC3)cc2)c(=O)c1` [Compound I-349] registered an inhibition at 10 µM greater than 75%.

Take `Cc1cc(OCC(=O)N(C)CC(=O)O)cc(=O)n1[C@H](C)c1ccc(C#CC2CC2)cc1` [Compound I-350]: the inhibition at 2 µM in experiment [1] is greater than 75%.

As to `O=c1nc(OC[C@@H]2COCCO2)cc2n1CCc1cc(C#CC3CC3)ccc1-2` [GLPG1205], in experiment [2], the “disease activity index score” value is reported as “reduced” and the neutrophil infiltration entry was “reduced”.
